Results published in patent US9309199B2, “Inhibitors of catechol O-methyl transferase and their use in the treatment of psychotic disorders” (Merck Sharp & Dohme Corp., priority 2010, dated 2016).

Target: T1, MB-COMT (Homo sapiens, UniProt P21964)
T1 construct: 6xHis or 10xHis (C)
T1 sequence (P21964 1-271): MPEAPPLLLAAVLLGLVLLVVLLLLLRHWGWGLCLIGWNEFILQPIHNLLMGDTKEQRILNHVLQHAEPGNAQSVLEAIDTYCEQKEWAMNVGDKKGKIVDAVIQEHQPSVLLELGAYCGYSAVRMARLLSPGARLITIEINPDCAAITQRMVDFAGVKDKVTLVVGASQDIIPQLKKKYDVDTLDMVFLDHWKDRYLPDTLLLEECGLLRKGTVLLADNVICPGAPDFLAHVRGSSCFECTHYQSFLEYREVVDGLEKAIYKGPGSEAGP
Experiment: COMT inhibition, esculetin fluorescence or fluorescence polarization assay (MB-COMT)
Assay type: biochemical
Conditions: purified human COMT Val158 variant, membrane-bound
Excerpt: The activity of the compounds in accordance with the present invention as COMT inhibitors may be readily determined without undue experimentation using a fluorescence or fluorescence polarization (FP) methodology that is well known in the art (Kurkela M et al., Anal Biochem (331) 2004, 198-200 and Graves, T L et al., Anal Biochem (373) 2008, 296-306).
The fluorescence assay was based on methylation of a substrate (6,7-dihydroxycoumarin or ‘esculetin’) by COMT to produce a highly fluorescent product (7-hydroxy-6-methoxycoumarin or scopoletin'). […] A 10 mM compound stock in DMSO was used to prepare 10 point 3-fold dilution series and 1 uL of appropriate dilution was plated into assay wells (black 96 well round bottom polystyrene plates from Costar; catalog #3792). […] The formation of product (scopoletin) was monitored over time by fluorescence (excitation 340 nm, emission 460 nm, no lag, 100 μs integration time, 5 flashes, top read) using a Tecan Safire^2 plate reader.

Compound	IC50 [µM]
N#Cc1cccc(-c2c[nH]c(=O)c(O)c2)c1 [Compound #8, 3-(5-hydroxy-6-oxo-1,6-dihydropyridin-3-yl)benzonitrile]	0.197
Cn1cc(-c2ccc(Cl)cc2Cl)cc(O)c1=O [Example 1, 5-(2,4-Dichloro-phenyl)-3-hydroxy-1-methyl-1H-pyridin-2-one]	0.392
Cn1cc(-c2ccc3ccccc3c2)cc(O)c1=O [Compound #1, 3-hydroxy-1-methyl-5-naphthalen-2-ylpyridin-2(1H)-one]	0.179

Stronger by IC50, values ahead:

IC50 [µM]	Compound
0.031	O=c1[nH]cc(-c2ccc(Cl)c(C(F)(F)F)c2)cc1O [Compound #2, 5-[4-chloro-3-(trifluoromethyl)-phenyl]-3-hydroxypyridin-2(1H)-one]
0.118	Cn1cc(-c2cccc(-c3ccccc3)c2)cc(O)c1=O [Example 4, 5-Biphenyl-3-yl-3-hydroxy-1-methylpyridin-2(1H)-one]
